The values below come from patent publication US20070213305A1, “N-alkyl-N-aryl-thienopyrimidin-4-amines and analogs as activators of caspases and inducers of apoptosis and the use thereof” (Cytovia, Inc., priority 2005, published 2007).

Structures can show the parent of a compound that is named as a salt. Where two headings read alike, the source gives them in different places.

The EC50 is the concentration that produces a half-maximal response.

Assay type in all cases: cell-based
Assay [1] has as its system human breast cancer cell line T-47D. Put plainly: Caspase cascade activation (DEVD-R110 fluorogenic substrate) in T-47D cells. Particulars: 24 h, read-out: Caspase Activation Potency EC50 (nM) (24 h) T-47D. As to the method: (§1) Human breast cancer cell line T-47D, human lung cancer cell line H1299 and human hepatocellular carcinoma cell line SNU398 were grown according to media component mixtures designated by American Type Culture Collection+10% FCS (Invitrogen Corporation), in a 5% CO2-95% humidity incubator at 37° C. T-47D and H1299 cells were maintained at a cell density between 50 and 80% confluency at a cell density of 0.1 to 0.6×10^6 cells/mL. Cells were harvested at 600×g and resuspended at 0.65×10^6 cells/mL into appropriate media+10% FCS. An aliquot of 22.5 μL of cells was added to a well of a 384-well microtiter plate containing 2.5 μL of a 10% DMSO in RPMI-1640 media solution containing 0.16 to 100 μM of N-(4-methoxyphenyl)-N, 2-dimethylthieno[3,2-d]pyrimidin-4-amine or other test compound (0.016 to 10 μM final). An aliquot of 22.5 μL of cells was added to a well of a 384-well microtiter plate containing 2.5 μL of a 10 % DMSO in RPMI-1640 media solution without test compound as the control sample. The samples were mixed by agitation and then incubated at 37° C. for 24 h or 48 h in a 5% CO2-95% humidity incubator. After incubation, the samples were removed from the incubator and 25 μL of a solution containing 14 μM of N-(Ac-DEVD)-N′-ethoxycarbonyl-R110 (SEQ ID No.:1) fluorogenic substrate (Cytovia, Inc.; WO99/18856), 20% sucrose (Sigma), 20 mM DTT (Sigma), 200 mM NaCI (Sigma), 40 mM Na PIPES buffer pH 7.2 (Sigma), and 500 μg/mL lysolecithin (Calbiochem) was added. The samples were mixed by agitation and incubated at room temperature. Using a fluorescent plate reader (Model SPECTRAfluor Plus, Tecan), an initial reading (T=0) was made approximately 1-2 min after addition of the substrate solution, employing excitation at 485 nm and emission at 530 nm, to determine the background fluorescence of the control sample. After the 3 h incubation, the samples were read for fluorescence as above (T=3 h).
(§2) The Relative Fluorescence Unit values (RFU) were used to calculate the sample readings as follows: RFU(T=3h)-Control RFU(T=0)=Net RFU(T=3h)
(§3) The activity of caspase cascade activation was determined by the ratio of the net RFU value for N-(4-methoxyphenyl)-N,2-dimethylthieno[3,2-d]pyrimidin-4-amine or other test compound to that of control samples. The EC50 (nM) was determined by a sigmoidal dose-response calculation (Prism 3.0, GraphPad Software Inc.).

The subject of assay [2] is human lung cancer cell line H1299. In words: Caspase cascade activation (DEVD-R110 fluorogenic substrate) in H1299 cells. As to conditions: read-out: Caspase Activation Potency EC50 (nM) (24 h) H1299. On the procedure:
as §1, §2, §3

The test system of assay [3] is human hepatocellular carcinoma cell line SNU398. In words: Caspase cascade activation (DEVD-R110 fluorogenic substrate) in SNU398 cells. Particulars: SNU398, 24 h, read-out: Caspase Activation Potency EC50 (nM) (24 h) SNU398. As to the method:
as §1, §2, §3
Several compounds were also tested in other cancer cells lines (48 h assay), including human hepatocellular carcinoma cell line SNU398, human colon carcinoma cell line […], human B cell lymphoblastoid cell line Ramos, human Burkitt's lymphoma cell line Namalwa, and cervical cancer cell line HeLa, and the data are summarized in Table II.

For `COc1ccc(N(C)c2nc(C)nc3c(C)csc23)cc1` [Example 3, N-(4-Methoxyphenyl)-N,2,7-trimethylthieno[3,2-d]pyrimidin-4-amine], the EC50 was 233 nM in assay [1] (Homo sapiens, T47D) and 281 nM in assay [2] (Homo sapiens, NCI-H1299, 24 h).

`COc1ccc(N(C)c2ncnc3cc(I)sc23)cc1` [Example 7, 6-Iodo-N-(4-methoxyphenyl)-N-methylthieno[3,2-d]pyrimidin-4-amine]: the EC50 is more than 10000 nM in assay [1] (Homo sapiens, T47D) and more than 10000 nM in assay [2] (Homo sapiens, NCI-H1299, 24 h).

For the compound `COc1ccc(N(C)c2ncnc3cc(-c4cccnc4)sc23)cc1` [Example 8, N-(4-Methoxyphenyl)-N-methyl-6-(pyridin-3-yl)thieno[3,2-d]pyrimidin-4-amine], the EC50 in assay [1] (Homo sapiens, T47D) was more than 10000 nM; in assay [2] (Homo sapiens, NCI-H1299, 24 h), more than 10000 nM.

With `COc1ccc(N(C)c2ncnc3sccc23)cc1` [Example 9, N-(4-Methoxyphenyl)-N-methylthieno[2,3-d]pynimidin-4-amine], the EC50 was found to be 19 nM in assay [1]; 41 nM in assay [2] (H1299, 24 h); 57 nM in assay [3].

Regarding `COc1ccc(N(C)c2ncnc3c(C)csc23)cc1` [Example 10, N-(4-Methoxyphenyl)-N,7-dimethylthieno[3,2-d]pyrimidin-4-amine], the EC50 in assay [1] (Homo sapiens, T47D) is 518 nM; in assay [2] (Homo sapiens, NCI-H1299, 24 h), 525 nM.

Turning to `COc1ccc(Nc2ncnc3scc(C)c23)cc1` [Example 11, N-(4-Methoxyphenyl)-5-methylthieno[2,3-d]pyrimidin-4-amine], the EC50 in assay [1] (Homo sapiens, T47D) is more than 10000 nM; in assay [2] (Homo sapiens, NCI-H1299, 24 h), more than 10000 nM.

For the compound `COc1ccc(N(C)c2ncnc3scc(C)c23)cc1` [Example 12, N-(4-Methoxyphenyl)-N,5-dimethylthieno[2,3-d]pyrimidin-4-amine], the EC50 was determined as 12 nM in assay [1] (Homo sapiens, T47D); 19 nM in assay [2] (Homo sapiens, NCI-H1299, 24 h); 15 nM in assay [3] (Homo sapiens, SNU-398).

Consider `COc1ccc(Nc2nc(C)nc3scc(C)c23)cc1` [Example 13, N-(4-Methoxyphenyl)-2,5-dimethylthieno[2,3-d]pyrimidin-4-amine hydrochloride], for which the EC50 in assay [1] (Homo sapiens, T47D) was more than 10000 nM; in assay [2] (Homo sapiens, NCI-H1299, 24 h) it was more than 10000 nM.

Take `COc1ccc(Nc2ncnc3ccsc23)cc1` [Example 14, N-(4-Methoxyphenyl)-thieno[3,2-d]pyrimidin-4-amine hydrochloride]: the EC50 in assay [1] (Homo sapiens, T47D) was more than 10000 nM; in assay [2] (Homo sapiens, NCI-H1299, 24 h) it was more than 10000 nM.

For `COc1ccc(OC)c(N(C)c2nc(C)nc3ccsc23)c1` [Example 16, N-(2,5-Dimethoxyphenyl)-N,2-dimethylthieno[3,2-d]pyrimidin-4-amine], the EC50 in assay [1] (Homo sapiens, T47D) was more than 10000 nM; in assay [2] (Homo sapiens, NCI-H1299, 24 h), more than 10000 nM.

For `Cc1cc(N(C)c2ncnc3ccsc23)no1` [Example 17, N-Methyl-N-(5-methylisoxazol-3-yl)thieno[3,2-d]pyrimidin-4-amine], the EC50 in assay [1] (Homo sapiens, T47D) is more than 10000 nM; in assay [2] (Homo sapiens, NCI-H1299, 24 h) it was more than 10000 nM.

As for `COc1ccc(N(C)c2ncnc3sc(C)cc23)cc1` [Example 18, N-(4-Methoxy-phenyl)-N,6-dimethylthieno[2,3-d]pyrimidin-4-amine hydrochloride], the EC50 was 125 nM in assay [1] (Homo sapiens, T47D) and 184 nM in assay [2] (Homo sapiens, NCI-H1299, 24 h).

For `COc1ccc(N(C)c2nc(-c3ccccc3)nc3ccsc23)cc1` [Example 19, N-(4-Methoxyphenyl)-N-methyl-2-phenylthieno[3,2-d]pyri idin-4-amine hydrochloride], the EC50 in assay [1] amounted to 337 nM; in assay [2] (H1299, 24 h), 615 nM.

On to `COc1ccc(N(C)c2nc(SC)nc3ccsc23)cc1` [Example 20, N-(4-Methoxyphenyl)-N-methyl-2-(methylthio)thieno[3,2-d]pyrimidin-4-amine hydrochloride], for which the EC50 came to 36 nM in assay [1] (Homo sapiens, T47D); 28 nM in assay [2] (Homo sapiens, NCI-H1299, 24 h); 81 nM in assay [3] (Homo sapiens, SNU-398).

Regarding `COc1ccc(OC)c(N(C)c2ncnc3ccsc23)c1` [Example 21, N-(2,5 -Dimethoxyphenyl)-N-methylthieno[3,2-d]pyrimidin-4-amin], the EC50 stood at 2500 nM in assay [1] (Homo sapiens, T47D) and 4940 nM in assay [2] (Homo sapiens, NCI-H1299, 24 h).

For `COC(=O)c1ccc(N(C)c2ncnc3ccsc23)cc1` [Example 22, N-(4-Methoxycarbonylphenyl)-N-methylthieno[3,2-d]pyrimidin-4-amine hydrochloride], the EC50 worked out at 185 nM in assay [1] (Homo sapiens, T47D) and 327 nM in assay [2] (Homo sapiens, NCI-H1299, 24 h).

Take `COc1ccc(N(C)c2ncnc3sc(C)c(C)c23)cc1` [Example 23, N-(4-Methoxyphenyl)-N,5,6-trimethylthieno[2,3-d]pyrimidin-4-amine]: the EC50 was found to be 19 nM in assay [1] (Homo sapiens, T47D); 51 nM in assay [2] (Homo sapiens, NCI-H1299, 24 h); 30 nM in assay [3] (Homo sapiens, SNU-398).

Turning to `COc1ccccc1N(C)c1ncnc2ccsc12` [Example 25, N-(2-Methoxyphenyl)-N-methylthieno[3,2-d]pyrimidin-4-amine], the half-maximal effective concentration (EC50) in assay [1] (Homo sapiens, T47D) is more than 10000 nM; in assay [2] (Homo sapiens, NCI-H1299, 24 h), more than 10000 nM.

For the compound `COc1ccc(N(C)c2ncnc3ccsc23)cc1OC` [Example 26, N-(3,4-Dimethoxyphenyl)-N-methylthieno[3,2-d]pyrimidin-4-amine], the EC50 in assay [1] (Homo sapiens, T47D) was found to be 1630 nM; in assay [2] (Homo sapiens, NCI-H1299, 24 h), 2620 nM.

Turning to `COc1cccc(N(C)c2ncnc3ccsc23)c1` [Example 27, N-(3-methoxyphenyl)-N-methylthieno[3,2-d]pyrimidin-4-amine], the EC50 is more than 10000 nM in assay [1] (Homo sapiens, T47D) and more than 10000 nM in assay [2] (Homo sapiens, NCI-H1299, 24 h).

On to `COc1cc(OC)cc(N(C)c2ncnc3ccsc23)c1` [Example 28, N-(3,5-dimethoxyphenyl)-N-methylthieno[3,2-d]pyrimidin-4-amine], for which the EC50 is more than 10000 nM in assay [1] (Homo sapiens, T47D) and more than 10000 nM in assay [2] (Homo sapiens, NCI-H1299, 24 h).
